How the values were obtained:
[1] = compound: C=CC(=O)Nc1ccc(C(=O)Nc2[nH]nc3c2CN(C(=O)N[C@H](CN(C)C)c2ccccc2)C3(C)C)cc1 [YKL-5-124]; assay: GR value, 72 h; higher = faster growth (1 = untreated, <0 = killing);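 note: breast cancer and non-malignant breast epithelial lines, nine half-log doses, viable cells counted by Hoechst and LIVE/DEAD dye imaging versus time-zero plates and DMSO controls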
[2] = compound: CN(C)C(=O)c1cc2cnc(Nc3ccc(N4CCNCC4)cn3)nc2n1C1CCCC1 [LEE011/Ribociclib]; assay: as above
[3] = compound: CC(=O)c1c(C)c2cnc(Nc3ccc(N4CCNCC4)cn3)nc2n(C2CCCC2)c1=O; assay: as above
[4] = compound: CN1CC[C@H](c2c(O)cc(O)c3c(=O)cc(-c4ccccc4Cl)oc23)[C@H](O)C1 [Flavopiridol]; assay: as above
[5] = compound: CCN1CCN(Cc2ccc(Nc3ncc(F)c(-c4cc(F)c5nc(C)n(C(C)C)c5c4)n3)nc2)CC1; assay: as above
[6] = compound: CN(C)C/C=C/C(=O)Nc1ccc(C(=O)Nc2cccc(Nc3ncc(Cl)c(-c4c[nH]c5ccccc45)n3)c2)cc1 [THZ1]; assay: as above
[7] = compound: CN(C)C/C=C/C(=O)Nc1ccc(C(=O)N2CCC[C@@H](Nc3ncc(Cl)c(-c4c[nH]c5ccccc45)n3)C2)cc1 [THZ531]; assay: as above
[8] = compound: CCc1cnn2c(NCc3ccc[n+]([O-])c3)cc(N3CCCC[C@H]3CCO)nc12; assay: as above
[9] = compound: Nc1cc(C(F)(F)F)c(-c2cc(N3CCOCC3)nc(N3CCOCC3)n2)cn1 [Buparlisib/NVP-BKM120]
[10] = compound: CCN1CCN(Cc2ccc(Nc3ncc(F)c(-c4cc(F)c5nc(C)n(C(C)C)c5c4)n3)nc2)CC1
[11] = compound: CC(=O)c1c(C)c2cnc(Nc3ccc(N4CCN(CCOCCOCCOCCNC(=O)COc5cccc6c5C(=O)N(C5CCC(=O)NC5=O)C6=O)CC4)cn3)nc2n(C2CCCC2)c1=O [BSJ-03-123]
[12] = compound: COc1cc2nccc(Oc3ccc(NC(=O)C4(C(=O)Nc5ccc(F)cc5)CC4)cc3)c2cc1OC [Cabozantinib]
[13] = compound: CC(=O)O[C@H]1C(=O)[C@@]2(C)[C@H]([C@H](OC(=O)c3ccccc3)[C@]3(O)C[C@H](OC(=O)[C@H](O)[C@@H](NC(=O)c4ccccc4)c4ccccc4)C(C)=C1C3(C)C)[C@]1(OC(C)=O)CO[C@@H]1C[C@@H]2O [Paclitaxel]
[14] = compound: CCc1cnn2c(NCc3ccc[n+]([O-])c3)cc(N3CCCC[C@H]3CCO)nc12
[15] = compound: CC1(CCN(CC1)C2=CN=C(C(=N2)N)C3=C(C(=CC=C3)Cl)Cl)N [SHP099]
[16] = compound: O=C(CCCCCCC(=O)Nc1ccccc1)NO [Vorinostat]
[17] = compound: NC1(C(=O)N[C@@H](CCO)c2ccc(Cl)cc2)CCN(c2nc[nH]c3nccc2-3)CC1 [AZD5363]
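Throughout, for GR50, 72 h: breast cancer and non-malignant breast epithelial cell lines, Deep Dye Drop or Dye Drop imaging, nine half-log doses, GR normalized to time-zero plates and DMSO-only controls.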

Cell Line: HCC1395
- GR value ([1]; 0.001 µM): 0.63 GR
- GR value ([1]; 0.003162 µM): 0.375 GR
- GR value ([1]; 0.01 µM): 0.275 GR
- GR value ([1]; 0.03162 µM): 0.158 GR
- GR value ([1]; 0.1 µM): 0.0856 GR
- GR value ([1]; 0.3162 µM): 0.0979 GR
- GR value ([1]; 1 µM): 0.0594 GR
- GR value ([1]; 3.162 µM): -0.0428 GR
- GR value ([1]; 10 µM): -0.311 GR
- GR value ([2]; 0.001 µM): 0.88 GR
- GR value ([2]; 0.003162 µM): 0.843 GR
- GR value ([2]; 0.01 µM): 0.691 GR
- GR value ([2]; 0.03162 µM): 0.847 GR
- GR value ([2]; 0.1 µM): 0.657 GR
- GR value ([2]; 0.3162 µM): 0.674 GR
- GR value ([2]; 1 µM): 0.569 GR
- GR value ([2]; 3.162 µM): 0.553 GR
- GR value ([2]; 10 µM): 0.415 GR
- GR value ([3]; 0.0003162 µM): 1.12 GR
- GR value ([3]; 0.001 µM): 1.07 GR
- GR value ([3]; 0.003162 µM): 1.06 GR
- GR value ([3]; 0.01 µM): 0.944 GR
- GR value ([3]; 0.03162 µM): 0.702 GR
- GR value ([3]; 0.1 µM): 0.495 GR
- GR value ([3]; 0.3162 µM): 0.444 GR
- GR value ([3]; 1 µM): 0.386 GR
- GR value ([3]; 3.162 µM): 0.324 GR
- GR value ([4]; 0.0001 µM): 1.02 GR
- GR value ([4]; 0.0003162 µM): 0.885 GR
- GR value ([4]; 0.001 µM): 0.933 GR
- GR value ([4]; 0.003162 µM): 0.826 GR
- GR value ([4]; 0.01 µM): 0.75 GR
- GR value ([4]; 0.03162 µM): 0.973 GR
- GR value ([4]; 0.1 µM): 0.683 GR
- GR value ([4]; 0.3162 µM): -0.0127 GR
- GR value ([4]; 1 µM): -0.672 GR
- GR value ([5]; 0.001 µM): 0.922 GR
- GR value ([5]; 0.003162 µM): 0.928 GR
- GR value ([5]; 0.01 µM): 0.734 GR
- GR value ([5]; 0.03162 µM): 0.594 GR
- GR value ([5]; 0.1 µM): 0.387 GR
- GR value ([5]; 0.3162 µM): 0.361 GR
- GR value ([5]; 1 µM): 0.283 GR
- GR value ([5]; 3.162 µM): 0.0357 GR
- GR value ([5]; 10 µM): -0.543 GR
- GR value ([6]; 0.0001 µM): 1 GR
- GR value ([6]; 0.0003162 µM): 1.01 GR
- GR value ([6]; 0.001 µM): 0.982 GR
- GR value ([6]; 0.003162 µM): 0.985 GR
- GR value ([6]; 0.01 µM): 1.04 GR
- GR value ([6]; 0.03162 µM): 0.241 GR
- GR value ([6]; 0.1 µM): -0.42 GR
- GR value ([6]; 0.3162 µM): -0.546 GR
- GR value ([6]; 1 µM): -0.795 GR
- GR value ([7]; 0.0001 µM): 1.14 GR
- GR value ([7]; 0.0003162 µM): 0.962 GR
- GR value ([7]; 0.001 µM): 0.995 GR
- GR value ([7]; 0.003162 µM): 0.947 GR
- GR value ([7]; 0.01 µM): 0.976 GR
- GR value ([7]; 0.03162 µM): 0.76 GR
- GR value ([7]; 0.1 µM): 0.408 GR
- GR value ([7]; 0.3162 µM): -0.251 GR
- GR value ([7]; 1 µM): -0.587 GR
- GR value ([8]; 0.0001 µM): 1.09 GR
- GR value ([8]; 0.0003162 µM): 1.1 GR
- GR value ([8]; 0.001 µM): 1.05 GR
- GR value ([8]; 0.003162 µM): 1.04 GR
- GR value ([8]; 0.01 µM): 0.649 GR
- GR value ([8]; 0.03162 µM): -0.319 GR
- GR value ([8]; 0.1 µM): -0.482 GR
- GR value ([8]; 0.3162 µM): -0.507 GR
- GR value ([8]; 1 µM): -0.488 GR
- GR50, 72 h [9]: 0.93 µM
- GR50, 72 h [10]: 0.112 µM
- GR50, 72 h [11]: 1.12 µM
- GR50, 72 h [12]: 5.55 µM
- GR50, 72 h [13]: 0.00388 µM
- GR50, 72 h [14]: 0.0124 µM
- GR50, 72 h [15]: > 10 µM
- GR50, 72 h [16]: 3.27 µM
- GR50, 72 h [17]: 0.135 µM

Cell Line: HCC1419
- GR value ([1]; 0.001 µM): 0.259 GR
- GR value ([1]; 0.003162 µM): 0.184 GR
- GR value ([1]; 0.01 µM): 0.0618 GR
- GR value ([1]; 0.03162 µM): 0.124 GR
- GR value ([1]; 0.1 µM): -0.0246 GR
- GR value ([1]; 0.3162 µM): -0.0463 GR
- GR value ([1]; 1 µM): -0.0452 GR
- GR value ([1]; 3.162 µM): -0.184 GR
- GR value ([1]; 10 µM): -0.379 GR
- GR value ([2]; 0.001 µM): 0.953 GR
- GR value ([2]; 0.003162 µM): 0.835 GR
- GR value ([2]; 0.01 µM): 0.774 GR
- GR value ([2]; 0.03162 µM): 0.889 GR
- GR value ([2]; 0.1 µM): 0.685 GR
- GR value ([2]; 0.3162 µM): 0.58 GR
- GR value ([2]; 1 µM): 0.655 GR
- GR value ([2]; 3.162 µM): 0.561 GR
- GR value ([2]; 10 µM): 0.525 GR
- GR value ([3]; 0.0003162 µM): 1.18 GR
- GR value ([3]; 0.001 µM): 1.09 GR
- GR value ([3]; 0.003162 µM): 1.11 GR
- GR value ([3]; 0.01 µM): 0.903 GR
- GR value ([3]; 0.03162 µM): 0.828 GR
- GR value ([3]; 0.1 µM): 0.612 GR
- GR value ([3]; 0.3162 µM): 0.535 GR
- GR value ([3]; 1 µM): 0.393 GR
- GR value ([3]; 3.162 µM): 0.492 GR
- GR value ([4]; 0.0001 µM): 1.06 GR
- GR value ([4]; 0.0003162 µM): 0.994 GR
- GR value ([4]; 0.001 µM): 0.974 GR
- GR value ([4]; 0.003162 µM): 0.95 GR
- GR value ([4]; 0.01 µM): 0.932 GR
- GR value ([4]; 0.03162 µM): 0.894 GR
- GR value ([4]; 0.1 µM): 0.658 GR
- GR value ([4]; 0.3162 µM): 0.396 GR
- GR value ([4]; 1 µM): -0.261 GR
- GR value ([5]; 0.001 µM): 1.13 GR
- GR value ([5]; 0.003162 µM): 0.823 GR
- GR value ([5]; 0.01 µM): 0.714 GR
- GR value ([5]; 0.03162 µM): 0.548 GR
- GR value ([5]; 0.1 µM): 0.548 GR
- GR value ([5]; 0.3162 µM): 0.415 GR
- GR value ([5]; 1 µM): 0.487 GR
- GR value ([5]; 3.162 µM): 0.303 GR
- GR value ([5]; 10 µM): 0.2 GR
- GR value ([6]; 0.0001 µM): 0.981 GR
- GR value ([6]; 0.0003162 µM): 0.953 GR
- GR value ([6]; 0.001 µM): 1.04 GR
- GR value ([6]; 0.003162 µM): 1.03 GR
- GR value ([6]; 0.01 µM): 1.01 GR
- GR value ([6]; 0.03162 µM): 0.765 GR
- GR value ([6]; 0.1 µM): 0.228 GR
- GR value ([6]; 0.3162 µM): -0.215 GR
- GR value ([6]; 1 µM): -0.386 GR
- GR value ([7]; 0.0001 µM): 0.969 GR
- GR value ([7]; 0.0003162 µM): 1.03 GR
- GR value ([7]; 0.001 µM): 1.02 GR
- GR value ([7]; 0.003162 µM): 0.993 GR
- GR value ([7]; 0.01 µM): 1.18 GR
- GR value ([7]; 0.03162 µM): 1.08 GR
- GR value ([7]; 0.1 µM): 0.772 GR
- GR value ([7]; 0.3162 µM): 0.0179 GR
- GR value ([7]; 1 µM): -0.31 GR
- GR value ([8]; 0.0001 µM): 1.15 GR
- GR value ([8]; 0.0003162 µM): 1.16 GR
- GR value ([8]; 0.001 µM): 1.06 GR
- GR value ([8]; 0.003162 µM): 1.25 GR
- GR value ([8]; 0.01 µM): 1.15 GR
- GR value ([8]; 0.03162 µM): 0.199 GR
- GR value ([8]; 0.1 µM): -0.384 GR
- GR value ([8]; 0.3162 µM): -0.426 GR
- GR value ([8]; 1 µM): -0.471 GR
- GR50, 72 h [9]: 0.396 µM
- GR50, 72 h [10]: 0.0969 µM
- GR50, 72 h [11]: 0.491 µM
- GR50, 72 h [12]: > 10 µM
- GR50, 72 h [13]: 0.00526 µM
- GR50, 72 h [14]: 0.0267 µM
- GR50, 72 h [15]: > 10 µM
- GR50, 72 h [16]: 1.8 µM
- GR50, 72 h [17]: > 10 µM
